Drawing on ChEMBL document CHEMBL3301448, “MMV Malaria Box screening against Toxoplasma gondii and Entamoeba histolytica”, this text covers IC50 for 62 compounds.

Where only a bound is given, the exact number is not on record here.

One assay has as its system Entamoeba histolytica. Description: MMV: Primary screening was performed with each compound at a 30 uM final concentration and in triplicate in sealed 96-well polystyrene microtiter plates. Parasite inocula (100 ul) comprising 20000 parasites/ml were added to each well and grown at 37 degrees C in a humidified atmosphere of 5% CO2 for 72 h. Positive controls consisted of metronidazole at 1 mg/ml. The growth of E. histolytica trophozoites in each well was determined microscopically by measuring the diameters of the confluent cells in drug-containing wells relative to those in the nega- tive-control wells. Type of assay: functional, organism-based.

In a further assay the test system is Toxoplasma gondii. Briefly: MMV: A total of 100ul of inoculum was added to each well (parasite/cell ratio, ~10:1; final volume, 200 ul). Six hours after inoculation, nonadherent parasites were removed, and 100 ul of complete DMEM (1% penicillin-streptomycin, 3% FBS) supplemented with inhibitors at different concentrations (2-fold serial dilutions starting from 30 uM) was added to all except the negative-control wells. Positive controls, consisting of pyrimethamine (PYR) and sulfadiazine (SDZ) (20-mg/ml stocks in DMSO), were tested at a 2mg/ml final concentration. Each test was performed in triplicate. It is filed as functional, organism-based. The following applies: 6 h.

`COc1ccccc1C(=O)ON=C(N)Cc1cccc2ccccc12`: the IC50 with Entamoeba histolytica and with Toxoplasma gondii was over 30 µM in each case.
For the compound `COc1ccc(NC(=O)C2c3ccccc3C(=O)N(CC(C)C)C2c2cccs2)cc1` (centres undefined), the IC50 in the assay with Entamoeba histolytica and in the assay with Toxoplasma gondii was over 30 µM in each case.
`Oc1ccccc1CNCC12CC3CC(CC(C3)C1)C2`: the 50% inhibitory concentration (IC50) with Entamoeba histolytica and in the assay on Toxoplasma gondii was over 30 µM throughout.
For the compound `Cc1cc(C)c2c(c1)OCN(Cc1ccccc1Cl)C2`, the IC50 in the assay with Entamoeba histolytica and with Toxoplasma gondii was over 30 µM throughout.
As for `CCOc1cc2c(cc1OCC)C(c1cc(C)c(O)c(C)c1)NCC2` (centres undefined), the half-inhibitory concentration (IC50) in the assay on Entamoeba histolytica was over 30 µM; with Toxoplasma gondii, 12.8 µM.
The matching figures for `CN1C=C(c2ccc3ccccc3n2)C(c2c[nH]c3ccccc23)c2ccccc21` (centres undefined): over 30 µM and over 30 µM.
The like results for `O=C(Nc1ccc(-c2nc3cc(NC(=O)c4ccc(Cl)cc4)ccc3[nH]2)cc1)c1ccc(Cl)cc1` were, in that order, over 30 µM and over 30 µM.
Consider `COc1cccc(C=Cc2nc(=O)c3ccccc3o2)c1OC`, for which the IC50 in the assay on Entamoeba histolytica and in the assay with Toxoplasma gondii was over 30 µM throughout.
In the case of `COc1ccc(C(=O)Nc2ccc(Cl)cc2C(=O)Nc2ccncc2)cc1`, the IC50 in the assay on Entamoeba histolytica and with Toxoplasma gondii was over 30 µM each time.
As for `CCCCCC(=O)N1c2ccccc2N=C2CC(c3ccc(OC)c(OC)c3)CC(O)=C2C1c1ccc(C(F)(F)F)cc1` (centres undefined), the IC50 in the assay on Entamoeba histolytica and in the assay with Toxoplasma gondii was over 30 µM in each case.
As for `COc1ccc(C(C)=O)cc1N1C(=O)C2C(C1=O)C1(c3ccccc3)C(=O)C2(c2ccccc2)C(c2ccc(C)cc2)=C1c1ccc(C)cc1` (centres undefined), the half-maximal inhibitory concentration (IC50) with Entamoeba histolytica and in the assay with Toxoplasma gondii was over 30 µM throughout.
`COc1cc(-c2nc(-c3ccc(Sc4ccccc4)cc3)c(-c3ccccc3)[nH]2)cc(OC)c1O`: the figures for the IC50 in the assay with Entamoeba histolytica and in the assay with Toxoplasma gondii were over 30 µM and 5.85 µM, respectively.
Take `CCCCCCn1c(=N)n(CC(O)COc2cccc(C)c2)c2ccccc21` (centres undefined): the IC50 with Entamoeba histolytica and with Toxoplasma gondii was over 30 µM throughout.
As to `Oc1c(CN2CCN(c3ccccc3F)CC2)cc(Br)c2cccnc12`, the concentration for half-maximal inhibition (IC50) with Entamoeba histolytica and with Toxoplasma gondii was over 30 µM in each case.
For the compound `COc1cc2cc(C(=O)Nc3ccccc3)c(N)nc2cc1OC`, the 50% inhibitory concentration (IC50) in the assay on Entamoeba histolytica and in the assay on Toxoplasma gondii was over 30 µM throughout.
For the compound `Cc1nc2ccccc2c(O)c1CC=C(Cl)Cl`, the IC50 in the assay with Entamoeba histolytica and with Toxoplasma gondii was over 30 µM throughout.
Turning to `Cc1ccc(C(=O)c2oc3ccc4c(C)cc(=O)oc4c3c2C)cc1`, the IC50 in the assay with Entamoeba histolytica and in the assay on Toxoplasma gondii was over 30 µM in each case.
Turning to `Brc1ccc(Nc2nc3ccccc3nc2Nc2ccc(Br)cc2)cc1`, the IC50 with Entamoeba histolytica and in the assay with Toxoplasma gondii was over 30 µM throughout.
For `CC(C)OCc1cc(CN2CCN(c3cccc(Cl)c3)CC2)c(O)c2ncccc12`, the IC50 in the assay with Entamoeba histolytica and in the assay with Toxoplasma gondii was over 30 µM throughout.
Consider `COc1ccc(C)c2sc(N(Cc3cccnc3)C(=O)c3ccc(C#N)cc3)nc12`, for which the IC50 in the assay with Entamoeba histolytica and in the assay with Toxoplasma gondii was over 30 µM each time.
As for `COc1ccc(C2NCCc3c2[nH]c2ccccc32)cc1CN1CCN(c2ccc(F)cc2)CC1` (centres undefined), the IC50 with Entamoeba histolytica and in the assay on Toxoplasma gondii was over 30 µM in each case.
On to `CC(Oc1ccc(NC(=O)c2cccs2)cc1)C(=O)c1ccc(Cl)cc1` (centres undefined), for which the IC50 in the assay on Entamoeba histolytica was over 30 µM; with Toxoplasma gondii it was 10.5 µM.
The matching figures for `CCOc1ccc(C2N(C)c3ccccc3N2C)cc1`: over 30 µM and over 30 µM.
The like results for `CCOC(=O)c1cnc2ccc(OC)cc2c1NCc1ccccc1` were, in that order, over 30 µM and over 30 µM.
For the compound `O=C(Nc1ccc(CN2CCOCC2)cc1)c1ccc(-c2ccc(Br)cc2)o1`, the IC50 in the assay on Entamoeba histolytica and with Toxoplasma gondii was over 30 µM each time.
Turning to `COc1ccc(C(=O)NC(c2ccc(Cl)cc2Cl)c2cc(Cl)c3cccnc3c2O)cc1` (centres undefined), the IC50 in the assay on Entamoeba histolytica and with Toxoplasma gondii was over 30 µM throughout.
Take `c1ccc(/C2=N/c3ccccc3/N=C(/c3ccccc3)c3ccccc32)cc1`: the half-inhibitory concentration (IC50) in the assay with Entamoeba histolytica and with Toxoplasma gondii was over 30 µM in each case.
Take `Cn1c(=O)n(C)c2cc(CNCCNc3ccnc4cc(Cl)ccc34)ccc21`: the IC50 in the assay with Entamoeba histolytica and with Toxoplasma gondii was over 30 µM in each case.
As for `COc1ccc(-c2nonc2NC(=O)c2cccc(C)c2)cc1OC`, the IC50 in the assay with Entamoeba histolytica and with Toxoplasma gondii was over 30 µM throughout.
As for `CCCC(c1nnnn1C1CCCCC1)N1CCN(C(=O)c2ccco2)CC1` (centres undefined), the IC50 in the assay on Entamoeba histolytica and with Toxoplasma gondii was over 30 µM throughout.
Consider `CCN(CC)CCNc1ncnc2c1[nH]c1ccc(Cl)cc12`, for which the IC50 with Entamoeba histolytica and with Toxoplasma gondii was over 30 µM each time.
With `Cc1ccnc(NC(c2cccc(OCc3ccccc3)c2)c2ccc3cccnc3c2O)c1` (centres undefined), the IC50 in the assay with Entamoeba histolytica and with Toxoplasma gondii was over 30 µM throughout.
Turning to `CCOC(=O)c1cnc2ccc(CC)cc2c1O`, the IC50 in the assay on Entamoeba histolytica and in the assay with Toxoplasma gondii was over 30 µM throughout.
For `Cc1ccc(-c2cc3nc4c(c(O)n3n2)CCCC4)cc1`, the IC50 in the assay with Entamoeba histolytica is over 30 µM; in the assay on Toxoplasma gondii it was 8.22 µM.
`COc1ccccc1NC1=C(N2CCCCC2)C(=O)c2ccccc2C1=O`: the half-maximal inhibitory concentration (IC50) with Entamoeba histolytica is over 30 µM; in the assay on Toxoplasma gondii, 4.54 µM.
The like results for `O=C(NC1CCN(Cc2ccccc2)CC1)c1cc(-c2ccncc2)nc2ccc(Cl)cc12` were, in that order, over 30 µM and over 30 µM.
The like results for `COc1ccc(-c2c(C)nn3c(N)c(C#N)cnc23)cc1OC` were, in that order, over 30 µM and over 30 µM.
The like results for `Clc1cc(Br)ccc1-c1ccc(CNCC2CCNCC2)o1` were, in that order, over 30 µM and over 30 µM.
Consider `CCOC(=O)c1cnc2c(C)cccc2c1Nc1ccc(C(C)=O)cc1`, for which the IC50 in the assay with Entamoeba histolytica and in the assay with Toxoplasma gondii was over 30 µM in each case.
For the compound `O=C(NC1CCN(Cc2ccccc2)CC1)c1cc(-c2cccnc2)nc2ccc(Cl)cc12`, the IC50 with Entamoeba histolytica and in the assay with Toxoplasma gondii was over 30 µM in each case.
`CCCc1c(CC)c(=N)c2ccccc2n1C`: the IC50 in the assay on Entamoeba histolytica and in the assay on Toxoplasma gondii was over 30 µM in each case.
With `COc1ccccc1CNC(=O)CCn1c(=O)[nH]c2ccccc2c1=O`, the IC50 in the assay with Entamoeba histolytica and in the assay on Toxoplasma gondii was over 30 µM each time.
Regarding `O=C1c2ccccc2C2=Nc3ccccc3SC(c3cccc(F)c3)C12` (centres undefined), the figures for the IC50 with Entamoeba histolytica and in the assay on Toxoplasma gondii were over 30 µM and 18.7 µM, respectively.
The like results for `CCc1ccc(Nc2cc(C)c3ccc(O)cc3n2)cc1` were, in that order, over 30 µM and over 30 µM.
As for `CCOC(=O)c1c[nH]c2c(CC)cccc2c1=O`, the IC50 with Entamoeba histolytica and in the assay on Toxoplasma gondii was over 30 µM throughout.
With `COCCNC(=O)c1ccc(OC2CCN(Cc3ccc(F)c(F)c3)CC2)c(Cl)c1`, the IC50 in the assay with Entamoeba histolytica and in the assay on Toxoplasma gondii was over 30 µM throughout.
`CCN(Cc1ccccc1)C1CCN(Cc2cc(Br)ccc2O)CC1`: the IC50 in the assay on Entamoeba histolytica and in the assay with Toxoplasma gondii was over 30 µM throughout.
For the compound `O=C(Nc1ccc(Cl)cc1)N1CCN(c2ccc3nncn3n2)CC1`, the IC50 in the assay with Entamoeba histolytica and in the assay on Toxoplasma gondii was over 30 µM in each case.
Consider `CCN(CC)CCn1c(=N)n(CC(O)c2ccc(Cl)c(Cl)c2)c2ccccc21` (centres undefined), for which the 50% inhibitory concentration (IC50) in the assay with Entamoeba histolytica and in the assay on Toxoplasma gondii was over 30 µM each time.
On to `O=C1c2ccccc2-c2nnc(-c3ccc(Br)cc3)cc21`, for which the IC50 with Entamoeba histolytica and with Toxoplasma gondii was over 30 µM throughout.
With `CCCCCCc1cc(O)c2c3c(c(=O)oc2c1)CCC(C)C3` (centres undefined), the IC50 in the assay on Entamoeba histolytica and in the assay with Toxoplasma gondii was over 30 µM in each case.
With `CCOC(=O)c1c(C)n(-c2ccc(Cl)cc2)c2ccc(OC(=O)C=Cc3ccccc3)cc12`, the IC50 in the assay with Entamoeba histolytica is 10.7 µM; in the assay with Toxoplasma gondii it was over 30 µM.
The like results for `O=C(Cc1ccccc1)NC(c1ccc(Cl)cc1)c1c(O)ccc2ccccc12` (centres undefined) were, in that order, over 30 µM and over 30 µM.
The like results for `COc1cc(C(=O)ON=C(N)Cc2cccc3ccccc23)cc(OC)c1OC` were, in that order, over 30 µM and over 30 µM.
The matching figures for `COc1ccc(-n2ccnc2SCC(=O)Nc2cc(C)ccc2C)c(OC)c1`: over 30 µM and over 30 µM.
As for `CC1(c2ccccc2)Nc2ccccc2-c2nc3ccccc3n21` (centres undefined), the half-maximal inhibitory concentration (IC50) in the assay with Entamoeba histolytica and in the assay with Toxoplasma gondii was over 30 µM throughout.
Turning to `COc1ccc(C2=C(c3ccc(OC)cc3)C3(c4ccccc4)C(=O)C2(c2ccccc2)C2C(=O)N(c4ccc(C)cc4)C(=O)C23)cc1` (centres undefined), the IC50 in the assay on Entamoeba histolytica and in the assay with Toxoplasma gondii was over 30 µM throughout.
With `CCOc1ccccc1CNC(=O)C1c2ccccc2C(=O)N(CC(C)C)C1c1cccs1` (centres undefined), the IC50 in the assay with Entamoeba histolytica and in the assay with Toxoplasma gondii was over 30 µM in each case.
Regarding `CC1CC2=C(CC1CNCCCN(C)C)C(C)(C)CCC2` (centres undefined), the IC50 in the assay with Entamoeba histolytica and in the assay with Toxoplasma gondii was over 30 µM in each case.
Consider `Nc1ccc(-c2nc3cc(Oc4ccc(Oc5ccc6[nH]c(-c7ccc(N)cc7)nc6c5)cc4)ccc3[nH]2)cc1`, for which the half-inhibitory concentration (IC50) in the assay on Entamoeba histolytica and with Toxoplasma gondii was over 30 µM each time.
On to `O=C(CSc1ccc2nnc(-c3cccc(F)c3)n2n1)Nc1ccc2c(c1)OCO2`, for which the IC50 with Entamoeba histolytica and with Toxoplasma gondii was over 30 µM in each case.
In the case of `FC(F)(F)c1cccc(Nc2nc(-c3ccccc3)nc3ncccc23)c1`, the IC50 in the assay with Entamoeba histolytica and in the assay with Toxoplasma gondii was over 30 µM in each case.

By IC50 is commonly meant the concentration at which inhibition is half-maximal.
